Reference: patent US9364476B2, “Methods of treating a Bruton's Tyrosine Kinase disease or disorder” (Celgene Avilomics Research, Inc., priority 2011, dated 2016)
Where “and” joins values, the source holds several entries; their conditions need not be identical. Equal values may be shown once. Read-outs that look alike come from different tables or passages of the source.

Columns and labels:
Solubility of the API = format: physicochemical
[1] = Environmental stability (heat, acid, base); format: physicochemical
[2] = for maximum tolerated dose (MTD): dose escalation cohorts, besylate
Text: (§1) Intrapatient dose escalation was allowed.
Enrollment for Cohorts 1-5 was not restricted or contingent on the basis of specific B-NHL/CLL/WM diagnosis. […] For example, the physician-investigator may elect to rest a patient due to occurrence or recurrence of adverse events. […] In this context, treatment duration refers to the time a patient is enrolled in the study, inclusive of all rest periods, until treatment is discontinued.
Six (6) subjects diagnosed with CLL and six (6) patients diagnosed with B-NHL were enrolled in each of Cohorts 6A and 6B. Cohorts 6A and 6B were enrolled concurrently, and if meeting the requirements for continued escalation, Cohorts 7A and 7B will be enrolled and evaluated.
Hematologic DLTs included Grade 4 anemia or thrombocytopenia, Grade 4 neutropenia greater than 5 days despite granulocyte colony-stimulating factor (G-CSF) and Grade 3 or higher febrile neutropenia.
Dose escalation will continue until a DLT is observed. […] One key objective for the dose escalation portion of the study was to identify the maximum tolerated dose (MTD) and Optimal Biological Effect dose (OBE). The OBE was defined as: […]

[3] = tested on: relapsed or refractory B-NHL, CLL/SLL, or WM; assay: Dose escalation study: disease progression and treatment duration; format: in vivo, human
Protocol: as §1
Subjects with CLL experiencing nodal response with lymphocytosis (which may be related to drug-mediated lymphocyte redistribution) were also eligible for additional treatment. Subjects with WM with increasing serum Immunoglobulin M (“IgM”) levels at the end of the first 28-day cycle were also evaluated for lymphadenopathy/organomegaly and marrow infiltration. Investigators were permitted to use judgment in determining whether to continue these subjects into the second 28-day cycle if there was a discordant response between increased IgM and stable or decreased lymphadenopathy/organomegaly and marrow infiltration.

CLL patients = assay: Dose escalation study: lymph node size and absolute lymphocyte count in CLL patients; format: in vivo, human
Text: FIG. 6 depicts the change in lymph node size in CLL patients with available lymph node assessment, twelve (12) of whom are from cohorts 1-5. These patients have experienced some degree of lymph node reduction: 2/12 patients have experienced nodal response (>50% reduction); 6/12 patients have experienced between 25 and 50% reduction over the treatment and follow-up periods indicated in the figure. The doses indicated refer to the patient's starting dose. The numbers at the top of each bar indicate the number of cycles completed for each subject as of the last available lymph node measurement.
FIG. 7 depicts the change in absolute lymphocyte count (ALC) in CLL patients. As of Sep. […] All CLL subjects with follow-up through cycle 1 at all dose levels are shown. Subjects treated with 750 mg or higher are indicated under the dotted line.

B-NHL patients = assay: Dose escalation study: lymph node size in B-NHL patients; format: in vivo, human; details: dose escalation cohorts
Text: The doses indicated refer to the patient's starting dose. The numbers at the top of each bar indicate the number of cycles completed for each subject as of the last available lymph node measurement.

[4] = Plasma API levels by LC-MS-MS (PK); format: in vivo, human
Protocol: Plasma API levels were assessed by LC-MS-MS.

[5] = CLL expansion cohort C: DLT; format: in vivo, human; details: 24 subjects, 750 mg po QD
Protocol: (§2) 24 subjects were enrolled into the CLL expansion cohort C and were assessed for safety, tolerability, DLT, PK, PD and disease response. Each subject was evaluated prior to enrollment to ensure that minimum hematological criteria were satisfied: […]

[6] = tested on: Relapsed and/or refractory CLL/SLL; assay: CLL expansion cohort C: disease response; format: in vivo, human
Protocol: After completion of observation for DLTs in Example 1, the accumulated safety, PK, and PD data from Example 1 were evaluated to select a preliminary recommended Phase 2 dose for administration to additional subjects enrolled into an independent and non-randomized diagnosis-specific expansion cohorts in the Diagnosis Specific Expansion Cohorts study. • Cohort A: Relapsed and/or refractory diffuse large B-cell lymphoma (DLBCL); • Cohort B: Relapsed and/or refractory indolent and mantle B-cell lymphomas, Waldenstrom's macroglobulinemia, and other B lymphoproliferative disorders of uncertain malignant potential (at least 10 of the 24 enrollment slots will be reserved for subjects with mantle cell lymphoma); and • Cohort C: Relapsed and/or refractory CLL/SLL.
as §2

[7] = biological target: Spleen tyrosine kinase (Syk) (Homo sapiens, UniProt P43405); details: DLBCL, CLL, and mantle cell lymphoma; cited from earlier work
[8] = 5/21 subjects, regardless of dose
[9] = cohort 5, 750 mg QD, initial, through May 22, 2012
[10] = cohorts 1-5 through May 22, 2012
[11] = twelve CLL patients from cohorts 1-5 with lymph node assessment
[12] = eleven patients from Expansion Cohort C, 750 mg QD

Compound: C=CC(=O)Nc1cccc(Nc2nc(Nc3ccc(OCCOC)cc3)ncc2F)c1.O=S(=O)(O)c1ccccc1 [N-(3-(5-fluoro-2-(4-(2-methoxyethoxy)phenylamino)pyrimidin-4-ylamino)phenyl)acrylamide besylate]
- solubility (Solubility of the API; ethanol, organic solvent or mixture, read-out: solubility in ethanol): ~10000 µg/mL
- solubility (Solubility of the API; water, read-out: solubility in water): ~160 µg/mL
- environmental instabilities (i.e. heat, acid, base) that require special handling [1]: no environmental instabilities
- treatment emergent AE: grade 1 or 2 headache [2, 8]: 23.8%
- treatment emergent AE: thrombocytopenia [2, 8]: 23.8%
- treatment emergent AE: grade 1 or 2 transient diarrhea ([2]; 15/21 subjects, regardless of dose): 71.4%
- other DLTs ([2]; besides the follicular lymphoma patient in cohort 3): no other DLTs have occurred
- serious adverse event not related to the study: disseminated Herpes zoster ([2]; cohort 1): 1 patient
- serious adverse event not related to the study: pneumonia ([2]; cohort 1): 1 patient
- incidence of abdominal distension ([2]; cohort 1, 125 mg QD): 1 patient
- incidence of contusion (bruising) ([2]; cohort 1, 125 mg QD): 2 patients
- incidence of diarrhea ([2]; cohort 1, 125 mg QD): 3 patients
- incidence of dyspepsia ([2]; cohort 1, 125 mg QD): 1 patient
- incidence of dyspnea ([2]; cohort 1, 125 mg QD): 1 patient
- incidence of fatigue ([2]; cohort 1, 125 mg QD): 2 patients
- incidence of headache ([2]; cohort 1, 125 mg QD): 2 patients
- incidence of jaw pain ([2]; cohort 1, 125 mg QD): 1 patient
- incidence of lymph node pain ([2]; cohort 1, 125 mg QD): 2 patients
- incidence of muscle spasm ([2]; cohort 1, 125 mg QD): 1 patient
- incidence of nausea ([2]; cohort 1, 125 mg QD): 1 patient
- incidence of pneumonia ([2]; cohort 1, 125 mg QD): 1 patient
- incidence of rash ([2]; cohort 1, 125 mg QD): 1 patient
- incidence of sinusitis ([2]; cohort 1, 125 mg QD): 1 patient
- incidence of thrombocytopenia ([2]; cohort 1, 125 mg QD): 1 patient
- incidence of upper respiratory infection ([2]; cohort 1, 125 mg QD): 2 patients
- incidence of urticaria ([2]; cohort 1, 125 mg QD): 1 patient
- incidence of weight loss ([2]; cohort 1, 125 mg QD): 1 patient
- serious adverse event not related to the study: atrial fibrillation ([2]; cohort 2): 1 patient
- incidence of abdominal distension ([2]; cohort 2, 250 mg QD): 1 patient
- incidence of cough ([2]; cohort 2, 250 mg QD): 1 patient
- incidence of decreased diarrhea ([2]; cohort 2, 250 mg QD): 2 patients
- incidence of dysgeusia ([2]; cohort 2, 250 mg QD): 1 patient
- incidence of dyspnea ([2]; cohort 2, 250 mg QD): 1 patient
- incidence of fatigue ([2]; cohort 2, 250 mg QD): 1 patient
- incidence of nausea ([2]; cohort 2, 250 mg QD): 1 patient
- incidence of neutropenia ([2]; cohort 2, 250 mg QD): 1 patient
- incidence of pneumonia ([2]; cohort 2, 250 mg QD): 1 patient
- incidence of weight loss ([2]; cohort 2, 250 mg QD): 1 patient
- serious adverse event not related to the study: hematuria/urinary retention ([2]; cohort 3): 1 patient
- serious adverse event not related to the study: pneumonia/thrombocytopenia/ANC decreased ([2]; cohort 3): 1 patient
- dose limiting toxicity ([2]; cohort 3 (400 mg QD), follicular lymphoma subject, first 28-day cycle): thrombocytopenia (low platelet count; Grade 4)
- incidence of anemia ([2]; cohort 3, 400 mg QD): 1 patient
- incidence of cough ([2]; cohort 3, 400 mg QD): 2 patients
- incidence of diarrhea ([2]; cohort 3, 400 mg QD): 4 patients
- incidence of fatigue ([2]; cohort 3, 400 mg QD): 1 patient
- incidence of headache ([2]; cohort 3, 400 mg QD): 1 patient
- incidence of influenza-like illness ([2]; cohort 3, 400 mg QD): 1 patient
- incidence of insomnia ([2]; cohort 3, 400 mg QD): 1 patient
- incidence of jaw pain ([2]; cohort 3, 400 mg QD): 1 patient
- incidence of muscle spasm ([2]; cohort 3, 400 mg QD): 1 patient
- incidence of neutropenia ([2]; cohort 3, 400 mg QD): 2 patients
- incidence of pneumonia ([2]; cohort 3, 400 mg QD): 1 patient
- incidence of rash ([2]; cohort 3, 400 mg QD): 1 patient
- incidence of thrombocytopenia ([2]; cohort 3, 400 mg QD): 3 patients
- incidence of upper respiratory infection ([2]; cohort 3, 400 mg QD): 2 patients
- incidence of urinary retention ([2]; cohort 3, 400 mg QD): 1 patient
- incidence of urticaria ([2]; cohort 3, 400 mg QD): 1 patient
- serious adverse event not related to the study: tonsillar hypertrophy ([2]; cohort 4): 1 patient
- neutropenia (adverse event) leading to discontinuation, after ([2]; cohort 4 (625 mg QD), CLL patient, after three cycles): 85 days
- incidence of abdominal pain ([2]; cohort 4, 625 mg QD): 2 patients
- incidence of anemia ([2]; cohort 4, 625 mg QD): 1 patient
- incidence of dehydration ([2]; cohort 4, 625 mg QD): 2 patients
- incidence of diarrhea ([2]; cohort 4, 625 mg QD): 5 patients
- incidence of dysgeusia ([2]; cohort 4, 625 mg QD): 2 patients
- incidence of dyspepsia ([2]; cohort 4, 625 mg QD): 2 patients
- incidence of eye pain ([2]; cohort 4, 625 mg QD): 2 patients
- incidence of headache ([2]; cohort 4, 625 mg QD): 2 patients
- incidence of influenza-like illness ([2]; cohort 4, 625 mg QD): 1 patient
- incidence of insomnia ([2]; cohort 4, 625 mg QD): 1 patient
- incidence of nausea ([2]; cohort 4, 625 mg QD): 2 patients
- incidence of neutropenia ([2]; cohort 4, 625 mg QD): 1 patient
- incidence of sinusitis ([2]; cohort 4, 625 mg QD): 1 patient
- incidence of thrombocytopenia ([2]; cohort 4, 625 mg QD): 1 patient
- incidence of urinary retention ([2]; cohort 4, 625 mg QD): 1 patient
- incidence of abdominal pain [2, 9]: 1 patient
- incidence of diarrhea [2, 9]: 1 patient
- Grade 3-4 neutropenia [2, 10]: 3 patients
- Grade 3-4 pneumonia [2, 10]: 2 patients
- Grade 3-4 thrombocytopenia [2, 10]: 4 patients
- maximum tolerated dose (MTD) [2]: not yet been reached
- maximum tolerated dose (MTD) ([2]; listed as API): not been reached
- severity of adverse events reported ([2]; except for decreased ANC (neutropenia), pneumonia and thrombocytopenia): Grade 1 and 2
- Grade 3/4 adverse event: neutropenia ([2]; subjects/21, probably related): 3/21
- Grade 3/4 adverse event: pneumonia ([2]; subjects/21, probably related): 2/21
- Grade 3/4 adverse event: thrombocytopenia ([2]; subjects/21, probably related): 4/21
- DLT or disease progression ([3]; cohort 1 (125 mg), three CLL subjects): None of the subjects showed DLT or disease progression
- progressive disease after ([3]; cohort 1 (starting 125 mg QD), three CLL patients, one value per patient, listed as API, besylate): 187 days and 319 days and 332 days
- progressive disease after ([3]; cohort 2 (250 mg QD), DLBCL subject): 28 days
- subjects showing no DLT or disease progression ([3]; cohort 2 (250 mg), three subjects): Two of the three
- progressive disease after ([3]; cohort 3 (400 mg QD), two CLL patients, one value per patient, listed as API, besylate): 168 days and 231 days
- patients showing no DLT or disease progression ([3]; cohort 3 (400 mg), six subjects, one MZL, two CLL): Three
- progressive disease after ([3]; cohort 4 (625 mg QD), DLBCL patient): 33 days
- progressive disease after ([3]; cohort 4 (625 mg QD), mantle cell lymphoma patient): 105 days
- progressive disease after ([3]; cohort 4 (625 mg QD), two follicular lymphoma patients, one value per patient, listed as API, besylate): 56 days and 212 days
- patients showing no DLT or disease progression ([3]; cohort 4 (625 mg), six subjects, follicular lymphoma): One
- progressive disease after ([3]; cohort 5 (750 mg QD), MLBCL patient): 64 days
- patients showing no DLT or disease progression ([3]; cohort 5 (750 mg), six subjects): Five
- patients showing no DLT or disease progression ([3]; cohorts 6A and 6B (1000 mg QD / 375 mg BID), twelve subjects, as of Sep. 11, 2012): eleven
- CLL patients with early increases (≧25%) in absolute lymphocyte counts (ALC) (CLL patients; of fifteen (15) CLL patients in cohorts 1-6A/B, first 28-day cycle, as of Sep. 11, 2012): 11 patients
- CLL patients with between 25 and 50% reduction of lymph node size (CLL patients; [11]): 6/12
- CLL patients with nodal response (>50% reduction of lymph node size) (CLL patients; [11]): 2/12
- B-NHL patients with decreased lymph node size (B-NHL patients): Six
- PK exposure (AUClast) ([4]; Day 1 to 15, once daily oral dosing): linear with no accumulation
- PK ([4]; once daily oral dosing): predictable with no accumulation
- patients showing no DLT [5]: Twenty-four
- progressive disease after ([6]; cohort C, 750 mg po QD, one patient): 73 days
- patients showing no disease progression ([6]; cohort C, 24 subjects, 750 mg po QD): twenty-three
- CLL patients with between 25 and 50% reduction of lymph node size [6, 12]: 6/11
- CLL patients with nodal response (>50% reduction of lymph node size) [6, 12]: 1/11
- CLL patients with early increases (≧25%) in absolute lymphocyte counts (ALC) ([6]; of eighteen (18) patients in Expansion Cohort C, 750 mg QD, first 28-day cycle): 17 patients

Compound: COc1cc(Nc2ncc(F)c(Nc3ccc4c(n3)N(COP(=O)(O)O)C(=O)C(C)(C)O4)n2)cc(OC)c1OC [fostamatinib disodium]
- clinical response [7]: clinical responses
